Where two headings read alike, the source gives them in different places.
Test system: phosphorylation of AKT in HCC70 cells
Test: Cellular assay: phosphorylation of AKT in HCC70 cells (western blotting)
Format: cell-based
Settings: Homo sapiens, HCC70, 1 h
Method: Cellular activity of PI3Kβ inhibitors was determined by quantifying the phosphorylation of AKT in HCC70 cells. AKT phosphorylated at Ser473 and Thr308 were measured using western blotting and specific primary antibodies from Cell Signaling (CST), Danvers, MA. On day 1, HCC70 cells (ATCC #CRL-2315) were seeded into Falcon 12-well cell Culture Plate (Corning #353043) at 100,000 cells per well, in 1 ml complete culture medium (RPMI-1640, GIBCO #11875093) containing 10% heat inactivated FBS (GIBCO #10438026), 1% Pen-Strep (GIBCO #15140122) and incubated at 37° AC, 5% CO2 overnight. On day 2, compound (500 nM) or DMSO (0.1%, Sigma Aldrich #8418) was added and cells were further incubated for 60 min at 37° AC, 5% CO2 in a total volume of 1 ml fresh medium.
At the end of the cell treatment period, media were removed by aspiration and adherent cells were lysed in 100 uL RIPA buffer (Sigma Aldrich #R0278). Equal volume (15 uL) of proteins was resolved by SDS-PAGE and transferred to PVDF (Millipore #IPFL00010) membrane for immunoblot analysis. Primary antibodies to the following proteins were used for immunoblotting: phosphor-AKT (Ser473) (CST #4060), phosphor-AKT (Thr308) (CST #2965), total AKT (CST #9272). Secondary goat anti-rabbit IgG fluorophore conjugated antibody (Invitrogen #A21109) was used to visualize the indicated proteins on an Odyssey CLx imaging system (Li-Cor). Quantification of band intensities was performed using Odyssey 3.0 software. Inhibition of Akt activity was calculated by band intensities using the formula: […]
Index was evaluated by % of AI. Data represent Index+(20˜60%), ++(60%˜80%), +++(80%˜90%), and ++++>90%.

[1] = HCC70 cells, compound 500 nM, 60 min, inhibition of Akt activity from band intensities, read-out: Index of AI (HCC70) p-AKT Thr 308
[2] = HCC70 cells, compound 500 nM, 60 min, inhibition of Akt activity from band intensities, read-out: Index of AI (HCC70) p-AKT ser 473
[3] = read-out: Index of AI (HCC70) p-AKT Thr 308
[4] = read-out: Index of AI (HCC70) p-AKT ser 473

Compound	inhibition at 0.5 µM [1] [%]	inhibition at 0.5 µM [2] [%]	inhibition at 0.5 µM [3] [%]	inhibition at 0.5 µM [4] [%]
O=c1cc(N2CCOCC2)oc2c(CNc3cc(F)cc(F)c3)cc(N3CCOCC3)cc12 [Compound 1, 8-(((3,5-difluorophenyl)amino)methyl)-2,6-dimorpholino-4H-chromen-4-one]	60 to 80	60 to 80		
CC(Nc1cc(F)cc(F)c1)c1cc(N=C(N)N)cc2c(=O)cc(N3CCOCC3)oc12 (stereo not drawn) [Compound 14, 2-(8-(1-((3,5-difluorophenyl)amino)ethyl)-2-morpholino-4-oxo-4H-chromen-6-yl)guanidine]	20 to 60	20 to 60		
CC(C)(O)CNC(=O)c1cc(CN2CCc3c(F)cc(F)cc32)c2oc(N3CCOCC3)cc(=O)c2c1 [Compound 84, 8-((4,6-difluoroindolin-1-yl)methyl)-N-(2-hydroxy-2-methylpropyl)-2-morpholino-4-oxo-4H-chromene-6-carboxamide]	80 to 90	80 to 90		
CN(C)C(=O)c1cc(CN2CCc3c(F)ccc(Cl)c32)c2oc(N3CCOCC3)cc(=O)c2c1 [Compound 62, 8-((7-chloro-4-fluoroindolin-1-yl)methyl)-N,N-dimethyl-2-morpholino-4-oxo-4H-chromene-6-carboxamide]	80 to 90	80 to 90		
O=C(c1cc(CN2CCc3c(F)cc(F)cc32)c2oc(N3CCOCC3)cc(=O)c2c1)N1CC(O)C1 [Compound 89, 8-((4,6-difluoroindolin-1-yl)methyl)-6-(3-hydroxyazetidine-1-carbonyl)-2-morpholino-4H-chromen-4-one]		20 to 60		
CN(C)C(=O)c1cc(CN2CCc3c(F)ccc(F)c32)c2nc(N3CCOCC3)cc(=O)n2c1 [Compound 99, 9-((4,7-difluoroindolin-1-yl)methyl)-N,N-dimethyl-2-morpholino-4-oxo-4H-pyrido[1,2-a]pyrimidine-7-carboxamide]	80 to 90	80 to 90		
CC(c1cc(C(=O)N(C)C)cc2c(=O)cc(N3CCOCC3)oc12)N1CCc2c(F)cc(F)cc21 (stereo not drawn) [Compound 37, 8-(1-(4,6-difluoroindolin-1-yl)ethyl)-N,N-dimethyl-2-morpholino-4-oxo-4H-chromene-6-carboxamide]	80 to 90	80 to 90		
Cc1cc(CN2c3cccc(F)c3CC2C)c2nc(N3CCOCC3)cc(=O)n2c1 (stereo not drawn) [Compound 53, 9-((4-fluoro-2-methylindolin-1-yl)methyl)-7-methyl-2-morpholino-4H-pyrido[1,2-a]pyrimidin-4-one]	60 to 80	60 to 80		
CC1(C)CN(C(=O)c2cc(CN3CCc4c(F)cc(F)cc43)c3oc(N4CCOCC4)cc(=O)c3c2)C1 [Compound 87, 8-((4,6-difluoroindolin-1-yl)methyl)-6-(3,3-dimethylazetidine-1-carbonyl)-2-morpholino-4H-chromen-4-one]	60 to 80	60 to 80		
CC1Cc2c(F)cc(F)cc2N1Cc1cc(C(=O)N(C)C)cc2c(=O)cc(N3CCOCC3)oc12 (stereo not drawn) [Compound 63, 8-((4,6-difluoro-2-methylindolin-1-yl)methyl)-N,N-dimethyl-2-morpholino-4-oxo-4H-chromene-6-carboxamide]	> 90	> 90		
Cc1cc(CN2c3cc(F)cc(F)c3CC2C)c2nc(N3CCOCC3)cc(=O)n2c1 (stereo not drawn) [Compound 55, 9-((4,6-difluoro-2-methylindolin-1-yl)methyl)-7-methyl-2-morpholino-4H-pyrido[1,2-a]pyrimidin-4-one]	20 to 60	20 to 60		
CCOc1cc(CNc2cc(F)cc(F)c2)c2oc(N3CCOCC3)cc(=O)c2c1 [Compound 4, 8-(((3,5-difluorophenyl)amino)methyl)-6-ethoxy-2-morpholino-4H-chromen-4-one]	60 to 80	60 to 80		
Cc1cc(CN2CCc3c(F)cc(F)cc32)c2nc(N3CCOCC3)cc(=O)n2c1 [Compound 54, 9-((4,6-difluoroindolin-1-yl)methyl)-7-methyl-2-morpholino-4H-pyrido[1,2-a]pyrimidin-4-one]	20 to 60	20 to 60		
CC(Nc1cc(F)cc(F)c1)c1cc(C(=O)N2CC3(C2)CS(=O)(=O)C3)cc2c(=O)cc(N3CCOCC3)oc12 (stereo not drawn) [Compound 28, 8-(1-((3,5-difluorophenyl)amino)ethyl)-6-(2,2-dioxido-2-thia-6-azaspiro[3.3]heptane-6-carbonyl)-2-morpholino-4H-chromen-4-one]	60 to 80	60 to 80		
CN(C)C(=O)c1cc(CN2CCc3c(F)cc(F)cc32)c2oc(N3CCO[C@H](CO)C3)cc(=O)c2c1 [Compound 92, (S)-8-((4,6-difluoroindolin-1-yl)methyl)-2-(2-(hydroxymethyl)morpholino)-N,N-dimethyl-4-oxo-4H-chromene-6-carboxamide]			60 to 80	60 to 80
O=C(c1cc(CN2CCc3c(F)cc(F)cc32)c2oc(N3CCOCC3)cc(=O)c2c1)N1CCOCC1 [Compound 41, 8-((4,6-difluoroindolin-1-yl)methyl)-6-(morpholine-4-carbonyl)-2-morpholino-4H-chromen-4-one]	80 to 90	80 to 90		
CN1CCC(NC(=O)c2cc(CN3CCc4c(F)cc(F)cc43)c3oc(N4CCOCC4)cc(=O)c3c2)CC1 [Compound 82, 8-((4,6-difluoroindolin-1-yl)methyl)-N-(1-methylpiperidin-4-yl)-2-morpholino-4-oxo-4H-chromene-6-carboxamide]	80 to 90	80 to 90		
CC(Nc1cc(F)cc(F)c1)c1cc(-c2c[nH][nH]c2=O)cc2c(=O)cc(N3CCOCC3)oc12 (stereo not drawn) [Compound 61, 4-(8-(1-((3,5-difluorophenyl)amino)ethyl)-2-morpholino-4-oxo-4H-chromen-6-yl)-1H-pyrazol-3(2H)-one]	20 to 60	20 to 60		
CN(C)C1CCN(C(=O)c2cc(CN3CCc4c(F)cc(F)cc43)c3oc(N4CCOCC4)cc(=O)c3c2)C1 (stereo not drawn) [Compound 43, 8-((4,6-difluoroindolin-1-yl)methyl)-6-(3-(dimethylamino)pyrrolidine-1-carbonyl)-2-morpholino-4H-chromen-4-one]	80 to 90	80 to 90		
C[C@@H]1Cc2c(F)cc(F)cc2N1Cc1cc(C(=O)N(C)C)cc2c(=O)cc(N3CCOCC3)oc12 (single isomer, unassigned) [Compound 65]	20 to 60	20 to 60		
CC(Nc1cccc(F)c1F)c1cc(C(=O)N2CC[C@@H](N(C)C)C2)cn2c(=O)cc(N3CCOCC3)nc12 (stereo partly drawn) [Compound 95, 9-(1-((2,3-difluorophenyl)amino)ethyl)-7-((R)-3-(dimethylamino)pyrrolidine-1-carbonyl)-2-morpholino-4H-pyrido[1,2-a]pyrimidin-4-one]			60 to 80	60 to 80
N#Cc1cc(CNc2cc(F)cc(F)c2)c2oc(N3CCOCC3)cc(=O)c2c1 [Compound 3, 8-(((3,5-difluorophenyl)amino)methyl)-2-morpholino-4-oxo-4H-chromene-6-carbonitrile]	60 to 80	60 to 80		
CCNC(=O)c1cc(CN2CCc3c(F)cc(F)cc32)c2oc(N3CCOCC3)cc(=O)c2c1 [Compound 80, 8-((4,6-difluoroindolin-1-yl)methyl)-N-ethyl-2-morpholino-4-oxo-4H-chromene-6-carboxamide]	60 to 80	60 to 80		
